Measurements published in US11926641B2, “Phosphonamidate butyrophilin ligands” (UNIVERSITY OF IOWA RESEARCH FOUNDATION, priority 2018, dated 2024).
Like-named read-outs stand apart in the source and are kept apart here. Values belong to the molecule of their own block, whether it stands above or below them.

Experiments:
[1] = Stability in 50% pooled human plasma in PBS (LCMS); type: in vitro ADME
Protocol: Stability studies. Pooled human plasma was diluted to 50% with phosphate buffered saline at pH 7.5. Test compounds were added at a final concentration of 100 μM in a volume of 100 μL. Compounds were incubated for various times as indicated in the text, then extracted with 300 μL of LCMS grade acetonitrile and vigorous mixing. Insoluble debris was pelleted by centrifugation at 10,000 rcf for 2 minutes. 10 μL of the extract was evaluated by LCMS with a Waters Synapt G2-Si Mass Spectrometer in positive mode using a gradient of water and acetonitrile and a C18 column. The gradient started at 25% acetonitrile then increased to 80% acetonitrile over 9 minutes and held there for 1 minute before re-equilibration. […] The integrated values of these peaks were compared to those of t=0 minutes in plasma for each test compound and expressed as a fraction of the initial compound that was remaining at a given time point.

in vitro = type: cell-based; details: human
Protocol: Cell viability. Viability assays were performed using K562 cells with various concentrations of test compounds. K562 cells (0.5×10^4 cells in 100 μL of RPMI media) were distributed into each well of a 96-well plate. Phosphonamidates were added for 72 hours, during the last 2 hours the cell-QB reagent was added, following which signals were quantified with a fluorescence plate reader. Viable cells were expressed as a percentage of untreated control cells after subtraction of a media-only blank.

human Vγ9Vδ2 T cells = assay: Expansion of Vγ9Vδ2 T cells from peripheral blood mononuclear cells; type: cell-based; details: ratio of expansion EC50 values
Protocol: Expansion of Vγ9Vδ2 T cells. […] Negative controls contained cells with interleukin 2 in the absence of test compounds. […] All experiments were performed at least three times using cells from at least two different donors.

Vγ9Vδ2 T cells = assay: ELISA for interferon γ: Vγ9Vδ2 T cells mixed with compound-loaded K562 cells; type: cell-based; details: Homo sapiens; K562 cells loaded for 4 hours with test compound; 3:1 effector:target; 20 hours; read-out: EC50 [μM] (95% CI), interferon γ production by Vγ9Vδ2 T cells
Protocol: ELISA for interferon γ. Interferon γ was measured by ELISA as previously described and according to manufacturer's directions (see Kilcollins, A. M., et al., J. Immunol. 2016, 197, 419-428; and Shippy, R. R., et al., J Med. Chem. 2017, 60, 2373-2382. Briefly, K562 cells were treated with test compounds for 4 hours, washed, then mixed with V79Vδ2 T cells that had been purified by negative selection. Each well contained a 3:1 effector: target ratio in 200 μL. After 20 hours, the concentration of interferon γ in the supernatant was determined. Data for representative compounds of the invention is shown in Table 2 (see FIG. 4).

[2] = cited from earlier work
[3] = 72 hour, read-out: IC50 [μM], cytotoxicity against K562 cells

Structure (SMILES): C/C(=C\CCP(=O)(OCOC(=O)C(C)(C)C)OCOC(=O)C(C)(C)C)CO [Compound 104, reference compound]
t1/2 [1]: 0.14 h

IC50 at 72 h (in vitro): > 100 µM
Structure (SMILES): Oc1cccc2ccccc12 [Compound 1-naphthol, 1-naphthol, reference compound]

Structure (SMILES): C/C(=C\CCP(=O)(NCC(=O)OC(C)C)Oc1ccccc1)CO (centres unmarked) [Compound 3, Isopropyl 2-[[[(E)-5-hydroxy-4-methyl-pent-3-enyl]-phenoxy-phosphoryl]amino]acetate]
Fold difference vs cmpd 10 (human Vγ9Vδ2 T cells): 3600
Fold difference vs cmpd 11 (human Vγ9Vδ2 T cells): 4.9
EC50 (Vγ9Vδ2 T cells): 0.74 µM
IC50 at 72 h (in vitro; [3]): 23 µM
t1/2 [1]: >24 h

Structure (SMILES): COC(=O)CNP(=O)(CC/C=C(\C)CO)Oc1ccc2ccccc2c1 (centres unmarked) [Compound 7, Methyl 2-[[[(E)-5-hydroxy-4-methyl-pent-3-enyl]-(2-naphthyloxy)phosphoryl]amino]acetate]
Fold difference vs cmpd 10 (human Vγ9Vδ2 T cells): 6900
Fold difference vs cmpd 11 (human Vγ9Vδ2 T cells): 9.3
EC50 (Vγ9Vδ2 T cells): 0.12 µM
IC50 at 72 h (in vitro; [3]): > 100 µM
t1/2 [1]: >24 h

Structure (SMILES): C/C(=C\COP(=O)(O)OP(=O)(O)O)CO [HMBPP]
stability in plasma [2]: not stable in plasma

Structure (SMILES): CCOC(=O)CNP(=O)(CC/C=C(\C)CO)Oc1cccc2ccccc12 (centres unmarked) [Compound 5, Ethyl 2-[[[(E)-5-hydroxy-4-methyl-pent-3-enyl]-(1-naphthyloxy)phosphoryl]amino]acetate]
Fold difference vs cmpd 10 (human Vγ9Vδ2 T cells): 11000
Fold difference vs cmpd 11 (human Vγ9Vδ2 T cells): 15
EC50 (Vγ9Vδ2 T cells): 0.062 µM
IC50 at 72 h (in vitro; [3]): 24 µM
t1/2 [1]: >24 h

Structure (SMILES): Oc1ccccc1 [Phenol, reference compound]
IC50 (in vitro): > 100000 nM

Structure (SMILES): CCOC(=O)CNP(=O)(CC/C=C(\C)CO)Oc1ccc2ccccc2c1 (centres unmarked) [Compound 8, Ethyl 2-[[[(E)-5-hydroxy-4-methyl-pent-3-enyl]-(2-naphthyloxy)phosphoryl]amino]acetate]
Fold difference vs cmpd 10 (human Vγ9Vδ2 T cells): 7500
Fold difference vs cmpd 11 (human Vγ9Vδ2 T cells): 10
EC50 (Vγ9Vδ2 T cells): 0.093 µM
IC50 at 72 h (in vitro; [3]): 28 µM
t1/2 [1]: >24 h

Structure (SMILES): COC(=O)CNP(=O)(CC/C=C(\C)CO)Oc1ccccc1 (centres unmarked) [Compound 1, Methyl 2-[[[(E)-5-hydroxy-4-methyl-pent-3-enyl]-phenoxy-phosphoryl]amino]acetate]
Fold difference vs cmpd 10 (human Vγ9Vδ2 T cells): 2700
Fold difference vs cmpd 11 (human Vγ9Vδ2 T cells): 3.6
EC50 (Vγ9Vδ2 T cells): 0.46 µM
IC50 at 72 h (in vitro; [3]): > 100 µM
t1/2 [1]: >24 h

Structure (SMILES): C/C(=C\CCP(=O)(NCC(=O)OC(C)C)Oc1cccc2ccccc12)CO (centres unmarked) [Compound 6, Isopropyl 2-[[[(E)-5-hydroxy-4-methyl-pent-3-enyl]-(1-naphthyloxy)phosphoryl]amino]acetate]
Fold difference vs cmpd 10 (human Vγ9Vδ2 T cells): 12000
Fold difference vs cmpd 11 (human Vγ9Vδ2 T cells): 16
EC50 (Vγ9Vδ2 T cells): 0.29 µM
IC50 at 72 h (in vitro; [3]): > 100 µM
t1/2 [1]: >24 h

Structure (SMILES): C/C(=C\CCP(=O)(NCC(=O)OC(C)C)Oc1ccc2ccccc2c1)CO (centres unmarked) [Compound 9, Isopropyl 2-[[[(E)-5-hydroxy-4-methyl-pent-3-enyl]-(2-naphthyloxy)phosphoryl]amino]acetate]
Fold difference vs cmpd 10 (human Vγ9Vδ2 T cells): 4900
Fold difference vs cmpd 11 (human Vγ9Vδ2 T cells): 6.6
EC50 (Vγ9Vδ2 T cells): 0.21 µM
IC50 at 72 h (in vitro; [3]): > 100 µM
t1/2 [1]: >24 h

Structure (SMILES): CCOC(=O)CNP(=O)(CC/C=C(\C)CO)Oc1ccccc1 (centres unmarked) [Compound 2, Ethyl 2-[[[(E)-5-hydroxy-4-methyl-pent-3-enyl]-phenoxy-phosphoryl]amino]acetate]
EC50 (Vγ9Vδ2 T cells): 0.17 µM
IC50 at 72 h (in vitro; [3]): > 100 µM

Structure (SMILES): COC(=O)CNP(=O)(CC/C=C(\C)CO)Oc1cccc2ccccc12 (centres unmarked) [Compound 4, Methyl 2-[[[(E)-5-hydroxy-4-methyl-pent-3-enyl]-(1-naphthyloxy)phosphoryl]amino]acetate]
Fold difference vs cmpd 10 (human Vγ9Vδ2 T cells): 9100
Fold difference vs cmpd 11 (human Vγ9Vδ2 T cells): 12
EC50 (Vγ9Vδ2 T cells): 0.13 µM
IC50 at 72 h (in vitro; [3]): 40 µM
t1/2 [1]: >24 h

IC50 at 72 h (in vitro): > 100 µM
Structure (SMILES): Oc1ccc2ccccc2c1 [Compound 2-naphthol, 2-naphthol, reference compound]
